Paper PMC5064002, “Sintokamide A Is a Novel Antagonist of Androgen Receptor That Uniquely Binds Activation Function-1 in Its Amino-terminal Domain” (The Journal of Biological Chemistry, 2016)
“And” between values parts separate entries of the source, which are not always exact repeats. Identical values can stand only once. Like-named read-outs stand apart in the source and are kept apart here.

How the values were obtained:
[1] = biological target: T1, progesterone receptor (PR)-β (Homo sapiens, UniProt P06401); experiment: Steroid receptor specificity: PRE-luciferase reporter in LNCaP cells; format: cell-based; conditions: 10 μM compound, 10 nM 4-pregnene-3,20-dione, 48 h
T1 construct: expressed in transfected cells; host or cells: LNCaP
T1 sequence (P06401 1-933): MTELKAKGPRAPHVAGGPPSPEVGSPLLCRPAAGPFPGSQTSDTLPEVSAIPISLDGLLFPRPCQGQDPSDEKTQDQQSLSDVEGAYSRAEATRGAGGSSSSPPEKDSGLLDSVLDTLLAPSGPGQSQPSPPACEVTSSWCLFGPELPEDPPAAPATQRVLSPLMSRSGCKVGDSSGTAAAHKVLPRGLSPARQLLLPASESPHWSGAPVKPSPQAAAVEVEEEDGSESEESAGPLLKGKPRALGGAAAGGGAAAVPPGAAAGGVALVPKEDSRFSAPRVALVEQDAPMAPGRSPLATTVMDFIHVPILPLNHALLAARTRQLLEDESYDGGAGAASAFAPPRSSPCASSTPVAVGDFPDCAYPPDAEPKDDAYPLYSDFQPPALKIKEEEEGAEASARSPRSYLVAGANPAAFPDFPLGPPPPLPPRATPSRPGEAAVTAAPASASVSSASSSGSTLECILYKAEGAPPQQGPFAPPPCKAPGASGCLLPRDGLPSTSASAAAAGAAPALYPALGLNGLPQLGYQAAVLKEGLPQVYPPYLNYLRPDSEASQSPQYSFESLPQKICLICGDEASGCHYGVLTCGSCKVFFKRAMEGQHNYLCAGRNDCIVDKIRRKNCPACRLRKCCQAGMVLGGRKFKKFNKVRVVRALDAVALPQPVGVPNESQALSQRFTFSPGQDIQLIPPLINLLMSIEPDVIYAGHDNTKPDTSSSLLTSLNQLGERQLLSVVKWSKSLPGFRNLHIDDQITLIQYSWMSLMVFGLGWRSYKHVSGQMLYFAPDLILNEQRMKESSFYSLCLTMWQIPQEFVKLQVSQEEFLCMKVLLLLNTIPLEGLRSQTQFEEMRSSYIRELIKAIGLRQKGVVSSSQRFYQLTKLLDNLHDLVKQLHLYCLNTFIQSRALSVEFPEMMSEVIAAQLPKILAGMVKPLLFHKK
Protocol: LNCaP cells were transfected with the reporter plasmid PSA(6.1kb)-luciferase, PRE-luciferase, or GRE-luciferase and expression vector for progesterone receptor (PR)-β or glucocorticoid receptor (GR)-α in serum-free, phenol red-free medium using Lipofectin (Invitrogen). […] After 48 h of treatment, cells were lysed and analyzed for luciferase activities.
FIGURE 1. […] A, LNCaP cells were transfected with PSA (6.1 kb)-luciferase, PRE-luciferase, or GRE-luciferase reporters and expression vector for PRβ or GRα. […] Error bars represent mean percentage of vehicle activity ±S.E. of at least three independent experiments with triplicate wells. SINT1, 10 μM; […]; ***, p < 0.001. […]. Error bars represents mean ± S.E. of three technical replicates. […] DAPI staining indicates the location of the nucleus. Scale bars, 20 μm.

PC3 cells = system: PC3 cells; parameters: method as in PMID 18834139; conditions: cited from earlier work
[2] = Pharmacokinetics in CD-1 mice; format: in vivo; conditions: single intravenous dose 50 mg/kg
Protocol: Pharmacokinetics assays were performed by NAEJA Pharmaceutical Inc. in a total of 27 CD-1 mice, which received a single intravenous SINT1 dose of 50 mg/kg of body weight. Blood samples were collected during a period of 2.5 min to 8 h postdosing from three mice per time point. Plasma concentrations of SINT1 and pharmacokinetics parameters were determined.

endogenous AR = biological target: T2, endogenous AR (Homo sapiens, UniProt P10275, T878A); experiment: Steroid receptor specificity: PSA(6.1kb)-luciferase reporter in LNCaP cells; format: cell-based; conditions: 10 μM compound, 1 nM R1881, 48 h
T2 construct: endogenous in cells; host or cells: LNCaP
T2 sequence (P10275 1-920 T878A): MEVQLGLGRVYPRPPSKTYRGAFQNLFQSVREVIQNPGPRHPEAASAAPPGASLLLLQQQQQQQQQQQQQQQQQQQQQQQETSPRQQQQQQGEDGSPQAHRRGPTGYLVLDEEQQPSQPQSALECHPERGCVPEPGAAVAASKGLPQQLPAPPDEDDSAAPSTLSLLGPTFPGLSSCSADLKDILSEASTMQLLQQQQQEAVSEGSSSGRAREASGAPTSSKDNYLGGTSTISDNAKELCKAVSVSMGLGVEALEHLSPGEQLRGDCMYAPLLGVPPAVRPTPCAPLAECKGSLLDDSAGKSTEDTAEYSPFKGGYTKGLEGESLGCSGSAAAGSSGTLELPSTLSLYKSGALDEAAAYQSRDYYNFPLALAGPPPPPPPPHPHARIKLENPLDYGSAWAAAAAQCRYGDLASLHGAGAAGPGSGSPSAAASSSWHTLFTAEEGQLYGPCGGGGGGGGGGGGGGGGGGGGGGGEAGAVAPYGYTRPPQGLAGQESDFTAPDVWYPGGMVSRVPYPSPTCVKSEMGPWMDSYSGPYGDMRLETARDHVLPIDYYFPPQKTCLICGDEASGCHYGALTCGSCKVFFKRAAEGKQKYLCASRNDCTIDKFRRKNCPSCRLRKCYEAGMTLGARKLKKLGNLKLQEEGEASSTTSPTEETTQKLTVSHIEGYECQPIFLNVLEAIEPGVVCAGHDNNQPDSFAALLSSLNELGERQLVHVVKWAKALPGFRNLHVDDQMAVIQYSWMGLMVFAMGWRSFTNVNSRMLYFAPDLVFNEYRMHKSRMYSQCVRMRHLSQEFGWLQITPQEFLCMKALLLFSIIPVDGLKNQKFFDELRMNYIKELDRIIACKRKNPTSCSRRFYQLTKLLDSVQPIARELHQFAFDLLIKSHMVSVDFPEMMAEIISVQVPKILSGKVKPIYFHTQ

LNCaP cells = system: LNCaP cells; parameters: method as in PMID 18834139; conditions: cited from earlier work
[3] = mice sets 1-3 and mean ± S.D., mean

CCC(=O)NC(CC(C)C(Cl)(Cl)Cl)C(=O)N1C(=O)C=C(OC)C1CC(C)C(Cl)Cl (stereo not drawn) [SINT1, Sintokamide A]
PR transcriptional activity (PRE-luciferase) [1]: did not affect | effect on PC3 cells that do not depend on AR for growth and survival (PC3 cells): no effect | Cmax ([2]; CD-1, mouse, plasma, iv, 50 mg/kg, plasma, mice sets 1-3 and mean ± S.D., read-out: Cmax): 3990 ng/mL | AUC(0-inf) ([2]; CD-1, mouse, plasma, iv, 50 mg/kg, mice sets 1-3 and mean ± S.D.): 1840 ng·h/mL | clearance ([2]; CD-1, mouse, plasma, iv, 50 mg/kg, mice sets 1-3 and mean ± S.D., read-out: Cl (plasma clearance) (converted)): 366 mL/min/kg | Vd ([2]; CD-1, mouse, plasma, iv, 50 mg/kg, mice sets 1-3 and mean ± S.D., read-out: Vd (volume of distribution)): 43.7 L/kg | half-life ([2]; CD-1, mouse, plasma, iv, 50 mg/kg, mice sets 1-3 and mean ± S.D., read-out: t½ (elimination half-life) (converted)): 1.38 h | Cmax ([2]; CD-1, mouse, plasma, iv, 50 mg/kg, read-out: Cmax in plasma): ~8 µM | Cmax ([2]; plasma, mice sets 1-3 and mean ± S.D.): 4440 ng/mL and 4030 ng/mL | Cmax ([2]; plasma, mice sets 1-3 and mean ± S.D., mean): 4150 ± 250 ng/mL | AUCinf ([2]; mice sets 1-3 and mean ± S.D.): 2370 ng·h/mL and 1510 ng·h/mL | Cl (plasma clearance) ([2]; mice sets 1-3 and mean ± S.D.): 284 mL/min/kg and 446.7 mL/min/kg | t½ (elimination half-life) ([2]; mice sets 1-3 and mean ± S.D.): 1.10 h and 1.01 h | AUCinf [2, 3]: 1900 ± 430 ng·h/mL | Cl (plasma clearance) [2, 3]: 365.5 ± 81.3 mL/min/kg | t½ (elimination half-life) [2, 3]: 1.16 ± 0.19 h | androgen-induced activity of endogenous AR (PSA (6.1 kb)-luciferase) (endogenous AR): significantly inhibited | androgen-dependent growth of LNCaP cells (LNCaP cells): block
